Assay results taken from PubChem BioAssay (NCI).
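A five-concentration, 48-hour dose response in 96-well plates underlies each endpoint, interpolated linearly between surrounding concentrations. Definition used: TGI = concentration required for complete inhibition of growth.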

Assays:
Test in all cases: NCI anticancer screen, dose series, 48 h
SK-MEL-2 melanoma = tested on: SK-MEL-2 melanoma
HCT-15 colon = tested on: HCT-15 colon
HS 578T breast = tested on: HS 578T breast
HCT-116 colon = tested on: HCT-116 colon
NCI-H226 lung = tested on: NCI-H226 lung
NCI-H522 lung = tested on: NCI-H522 lung
IGROV1 ovarian = tested on: IGROV1 ovarian
SN12C renal = tested on: SN12C renal
DU-145 prostate = tested on: DU-145 prostate
NCI-H460 lung = tested on: NCI-H460 lung
UACC-62 melanoma = tested on: UACC-62 melanoma
SNB-19 CNS = tested on: SNB-19 CNS
EKVX NSCLC = tested on: EKVX NSCLC
MDA-MB-435 = tested on: MDA-MB-435
T-47D breast = tested on: T-47D breast
ACHN renal = tested on: ACHN renal
OVCAR-5 ovarian = tested on: OVCAR-5 ovarian
786-0 renal = tested on: 786-0 renal
SK-MEL-5 melanoma = tested on: SK-MEL-5 melanoma
MCF7 breast = tested on: MCF7 breast
SR leukemia = tested on: SR leukemia
A498 renal = tested on: A498 renal
HOP-62 NSCLC = tested on: HOP-62 NSCLC
SW-620 colon = tested on: SW-620 colon
OVCAR-8 ovarian = tested on: OVCAR-8 ovarian
HL-60(TB) leukemia = tested on: HL-60(TB) leukemia
MDA-N = tested on: MDA-N
SNB-75 CNS = tested on: SNB-75 CNS
COLO 205 colon = tested on: COLO 205 colon
OVCAR-3 ovarian = tested on: OVCAR-3 ovarian
UO-31 renal = tested on: UO-31 renal
K-562 leukemia = tested on: K-562 leukemia
MALME-3M melanoma = tested on: MALME-3M melanoma
RPMI-8226 leukemia = tested on: RPMI-8226 leukemia
NCI/ADR-RES ovarian = tested on: NCI/ADR-RES ovarian
CAKI-1 renal = tested on: CAKI-1 renal
SK-MEL-28 melanoma = tested on: SK-MEL-28 melanoma
OVCAR-4 ovarian = tested on: OVCAR-4 ovarian
SF-295 CNS = tested on: SF-295 CNS
SF-268 CNS = tested on: SF-268 CNS
U251 CNS = tested on: U251 CNS
HCC-2998 colon = tested on: HCC-2998 colon
TK-10 renal = tested on: TK-10 renal
HT29 colon = tested on: HT29 colon
LOX IMVI melanoma = tested on: LOX IMVI melanoma
NCI-H23 lung = tested on: NCI-H23 lung
MDA-MB-231 breast = tested on: MDA-MB-231 breast
MOLT-4 leukemia = tested on: MOLT-4 leukemia
BT-549 breast = tested on: BT-549 breast
KM12 colon = tested on: KM12 colon
PC-3 prostate = tested on: PC-3 prostate
UACC-257 melanoma = tested on: UACC-257 melanoma
SK-OV-3 ovarian = tested on: SK-OV-3 ovarian
CCRF-CEM leukemia = tested on: CCRF-CEM leukemia
A549 NSCLC = tested on: A549 NSCLC
RXF 393 renal = tested on: RXF 393 renal
M14 melanoma = tested on: M14 melanoma

CC(C)(C)C1CCC(=O)/C(=C/CC2CC(=O)N(c3ccccc3)C(=O)C2)C1 (configuration not stated)
TGI (SK-MEL-2 melanoma): 42.9 µM | TGI (HCT-15 colon): 33.2 µM | TGI (HS 578T breast): 94.5 µM | TGI (HCT-116 colon): 29.3 µM | TGI (NCI-H226 lung): 32 µM | TGI (NCI-H522 lung): 39.2 µM | TGI (IGROV1 ovarian): 44.5 µM | TGI (SN12C renal): 41.3 µM | TGI (DU-145 prostate): 40 µM | TGI (NCI-H460 lung): 30.2 µM | TGI (UACC-62 melanoma): 27.7 µM | TGI (SNB-19 CNS): 51.6 µM | TGI (EKVX NSCLC): 60.2 µM | TGI (MDA-MB-435): 64.8 µM | TGI (T-47D breast): 48.6 µM | TGI (ACHN renal): 42.9 µM | TGI (OVCAR-5 ovarian): 41.6 µM | TGI (786-0 renal): 38.3 µM | TGI (SK-MEL-5 melanoma): 31.7 µM | TGI (MCF7 breast): 49.5 µM | TGI (SR leukemia): 41.5 µM | TGI (A498 renal): 61.2 µM | TGI (HOP-62 NSCLC): 72.8 µM | TGI (SW-620 colon): 53.5 µM | TGI (OVCAR-8 ovarian): 39.8 µM | TGI (HL-60(TB) leukemia): 94.1 µM | TGI (MDA-N): 66.9 µM | TGI (SNB-75 CNS): 53.3 µM | TGI (COLO 205 colon): 41.2 µM | TGI (OVCAR-3 ovarian): 47.7 µM | TGI (UO-31 renal): 30.2 µM | TGI (K-562 leukemia): 48.3 µM | TGI (MALME-3M melanoma): 36.7 µM | TGI (RPMI-8226 leukemia): 49.1 µM | TGI (NCI/ADR-RES ovarian): 37.7 µM | TGI (CAKI-1 renal): 41.6 µM | TGI (SK-MEL-28 melanoma): 47.4 µM | TGI (OVCAR-4 ovarian): 77.4 µM | TGI (SF-295 CNS): > 100 µM | TGI (SF-268 CNS): 47.1 µM | TGI (U251 CNS): 31 µM | TGI (HCC-2998 colon): 43.5 µM | TGI (TK-10 renal): 31.8 µM | TGI (HT29 colon): 43.6 µM | TGI (LOX IMVI melanoma): 29.7 µM | TGI (NCI-H23 lung): 34.6 µM | TGI (MDA-MB-231 breast): > 100 µM | TGI (MOLT-4 leukemia): 75.2 µM | TGI (BT-549 breast): 44.5 µM | TGI (KM12 colon): 33.6 µM | TGI (PC-3 prostate): 70.2 µM | TGI (UACC-257 melanoma): 28.2 µM

ONC1=Nc2cc(Cl)ccc2C(=S)N2CSCC12 (configuration not stated)
TGI (SK-MEL-2 melanoma): > 100 µM | TGI (SK-OV-3 ovarian): > 100 µM | TGI (HCT-15 colon): > 100 µM | TGI (HS 578T breast): > 100 µM | TGI (CCRF-CEM leukemia): > 100 µM | TGI (HCT-116 colon): > 100 µM | TGI (A549 NSCLC): > 100 µM | TGI (NCI-H226 lung): > 100 µM | TGI (NCI-H522 lung): > 100 µM | TGI (IGROV1 ovarian): > 100 µM | TGI (SN12C renal): > 100 µM | TGI (DU-145 prostate): > 100 µM | TGI (NCI-H460 lung): > 100 µM | TGI (UACC-62 melanoma): > 100 µM | TGI (SNB-19 CNS): > 100 µM | TGI (EKVX NSCLC): > 100 µM | TGI (MDA-MB-435): > 100 µM | TGI (T-47D breast): > 100 µM | TGI (ACHN renal): > 100 µM | TGI (OVCAR-5 ovarian): > 100 µM | TGI (786-0 renal): > 100 µM | TGI (SK-MEL-5 melanoma): > 100 µM | TGI (MCF7 breast): > 100 µM | TGI (SR leukemia): > 100 µM | TGI (RXF 393 renal): > 100 µM | TGI (A498 renal): > 100 µM | TGI (HOP-62 NSCLC): > 100 µM | TGI (SW-620 colon): > 100 µM | TGI (OVCAR-8 ovarian): > 100 µM | TGI (MDA-N): > 100 µM | TGI (SNB-75 CNS): > 100 µM | TGI (COLO 205 colon): > 100 µM | TGI (OVCAR-3 ovarian): > 100 µM | TGI (M14 melanoma): > 100 µM | TGI (UO-31 renal): > 100 µM | TGI (K-562 leukemia): > 100 µM | TGI (MALME-3M melanoma): > 100 µM | TGI (RPMI-8226 leukemia): > 100 µM | TGI (NCI/ADR-RES ovarian): > 100 µM | TGI (CAKI-1 renal): > 100 µM | TGI (SK-MEL-28 melanoma): > 100 µM | TGI (OVCAR-4 ovarian): > 100 µM | TGI (SF-295 CNS): > 100 µM | TGI (SF-268 CNS): > 100 µM | TGI (U251 CNS): > 100 µM | TGI (HCC-2998 colon): > 100 µM | TGI (TK-10 renal): > 100 µM | TGI (HT29 colon): > 100 µM | TGI (LOX IMVI melanoma): > 100 µM | TGI (MDA-MB-231 breast): > 100 µM | TGI (MOLT-4 leukemia): > 100 µM | TGI (BT-549 breast): > 100 µM | TGI (KM12 colon): > 100 µM | TGI (PC-3 prostate): > 100 µM | TGI (UACC-257 melanoma): > 100 µM
